From ChEMBL document CHEMBL1146541, “New cytotoxic indolic metabolites from a marine Streptomyces” (2003)
Activity calls are given as the source filed them.

What was measured:
LNCaP = assay: Cytotoxicity against human LNCAP cells; type: functional, cell-based
LoVo [1] = assay: Cytotoxicity against human LoVo cells; type: functional, cell-based
PANC-1 = assay: Cytotoxicity against human PANC1 cells; type: functional, cell-based
K562 = assay: Cytotoxicity against human K562 cells; type: functional
HMEC-1 = assay: Cytotoxicity against human HMEC1 cells; type: functional, cell-based
LoVo [2] = assay: Cytotoxicity against doxorubicin-resistant human LoVo cells; type: functional, cell-based

Measured: Activity

CC(C)=CCc1ccc2c(CC#N)c[nH]c2c1
inactive: all assays above
